This is an account of results in patent US6576628B1, “3-aryl-succinamido-hydroxamic acids, methods for producing said acids and medicaments containing the same” (Roche Diagnostics GmbH, priority 1997, dated 2003).

As usually defined, the inhibition is the change of the read-out against control, counted positive when it falls. A low value points to little suppression. As usually defined, the IC50 is the concentration needed to halve the response being measured.

What all share (format): biochemical
The target in test [1] is T1, MMP1 (Homo sapiens, UniProt P03956).
T1 sequence (P03956 100-469): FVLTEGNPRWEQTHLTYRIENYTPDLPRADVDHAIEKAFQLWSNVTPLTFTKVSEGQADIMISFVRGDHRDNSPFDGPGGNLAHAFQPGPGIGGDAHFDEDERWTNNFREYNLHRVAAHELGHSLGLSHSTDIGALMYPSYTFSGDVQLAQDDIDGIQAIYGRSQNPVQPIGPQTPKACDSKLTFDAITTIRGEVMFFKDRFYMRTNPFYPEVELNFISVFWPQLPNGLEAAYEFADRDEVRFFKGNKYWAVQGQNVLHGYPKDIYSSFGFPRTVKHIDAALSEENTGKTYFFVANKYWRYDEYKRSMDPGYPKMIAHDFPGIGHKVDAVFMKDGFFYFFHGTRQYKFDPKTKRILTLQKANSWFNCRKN
The test is described as follows: MMP1 inhibition assay in analogy to HNC (MMP8) assay. The settings on record: for inhibition at 0.2 µM: inhibitor at 200 nM, activated MMP1. Here is the method: In order to determine the inhibitory potential of compounds of the general formula I on MMPs such as HNC, the catalytic domain is incubated (isolation and purification see Schnierer, S., Kleine, T., Gote, T., Hillemann, A., Knäuper, V., Tschesche, H., Biochem. Biophys. Res. Commun. (1993), 191, 319-326). Subsequently the initial reaction rate of a standard substrate is measured as described in Grams F. et al., FEBS 335 (1993) 76-80). The results are evaluated in the usual manner (see e.g. Dixon, M., Biochem. J. (1953) 55, 170-202).
The synthetic collagenase substrate is a heptapeptide coupled C-terminally with dinitrophenol (DNP). This DNP residue quenches the fluorescence of the Trp of the heptapeptide. After cleavage of a tripeptide containing the DNP residue, the measurable fluorescence increases.
A solution of enzyme and inhibitor is prepared in assay buffer at 25° C. The reaction is started by addition of the substrate to the solution. The cleavage of the fluorogenic substrate is measured by fluorescence spectroscopy (excitation and emission wavelength at 280 and 350 nm respectively). The IC50 value is determined for an inhibitor concentration at which the reaction rate is halved.
An activation is additionally necessary for MMP2 and MMP1.

The target in test [2] is T2, MMP2 (Homo sapiens, UniProt P08253).
T2 sequence (P08253 110-660): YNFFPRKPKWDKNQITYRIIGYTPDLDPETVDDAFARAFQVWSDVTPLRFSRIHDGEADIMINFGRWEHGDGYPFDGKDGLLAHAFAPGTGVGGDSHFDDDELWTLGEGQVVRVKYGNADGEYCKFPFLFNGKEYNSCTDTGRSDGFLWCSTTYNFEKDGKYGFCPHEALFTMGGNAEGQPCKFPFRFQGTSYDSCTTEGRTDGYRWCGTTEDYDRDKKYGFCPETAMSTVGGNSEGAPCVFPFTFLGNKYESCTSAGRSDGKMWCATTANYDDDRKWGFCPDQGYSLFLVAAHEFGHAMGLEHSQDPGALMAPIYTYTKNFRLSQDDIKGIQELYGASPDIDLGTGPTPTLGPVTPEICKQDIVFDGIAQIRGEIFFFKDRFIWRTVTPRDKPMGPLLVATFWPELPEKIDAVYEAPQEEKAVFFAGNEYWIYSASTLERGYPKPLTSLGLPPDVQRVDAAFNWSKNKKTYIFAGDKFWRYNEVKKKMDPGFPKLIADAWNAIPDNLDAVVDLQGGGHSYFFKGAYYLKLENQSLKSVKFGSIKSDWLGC
Nature of the test: MMP2 inhibition assay in analogy to HNC (MMP8) assay. The settings on record: activated MMP2; other concentrations than MMP8 assay.

The target in test [3] is T3, catalytic domain (Met80-Gly242) of the human neutrophilic collagenase (MMP8) (Homo sapiens, UniProt P22894).
T3 construct: catalytic domain (Met80-Gly242) of the human neutrophilic collagenase (MMP8); made in house
The test is described as follows: MMP8 (HNC) catalytic domain fluorogenic substrate inhibition assay. The settings on record: 8 nM catalytic domain, 10 μM DNP-heptapeptide substrate, 25° C., pH 7.6.
Procedure: 50 mM Tris/HCl pH 7.6 (Tris=Tris-(hydroxymethyl)-aminomethane)
100 mM NaCl/10 mM CaCl2/5% MeOH (if required)
8 nM catalytic domain (Met80-Gly242) of the human neutrophilic collagenase (MMP8)

Molecules are shown by their SMILES.

T3 sequence (P22894 100-262): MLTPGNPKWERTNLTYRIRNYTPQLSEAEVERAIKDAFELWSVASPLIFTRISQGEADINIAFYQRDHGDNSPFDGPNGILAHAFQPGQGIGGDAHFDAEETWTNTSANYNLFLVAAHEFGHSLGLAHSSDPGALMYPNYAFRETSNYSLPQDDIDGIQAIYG

`CNC(=O)[C@@H](NC(=O)[C@H](CC(C)C)[C@H](O)C(=O)NO)C(C)(C)C` [Marimastat, N2-[3S-hydroxy-4-(N-hydroxyamino)-2R-isobutyl-succinyl)-L-tert-leucine-N1-methylamide, reference compound] came in with an inhibition at 0.2 µM in test [1] of 100%.
Consider `CNC(=O)[C@@H](NC(=O)C(c1ccc(-c2ccccc2)cc1)C(O)C(=O)NO)C(C)(C)C` (mixture of isomers) [example 1.5, 2-Biphenyl-4-yl-N1-((1S)-2,2-dimethyl-1-methyl-carbamoyl-propyl)-3,N4-dihydroxy-succinamide], for which, in test [1], the “inhibition of MMP1 compared with Marimastat (in words)” value is given as “substantially poorer than by Marimastat”. Also, in test [1] (compared with Marimastat, MMP2/MMP8 versus MMP1), the “selectivity relative to MMP1 (in words)” value is reported as “clear selectivity advantage relative to MMP1”. In addition, in test [1], at 0.2 µM the inhibition was 20%. The half-maximal inhibitory concentration (IC50) in test [2] is 23 nM; in test [3], 18 nM.
